{"source": "patent US20050147578A1", "about": "“Topical cosmetic composition having a natural plant active ingredient and method of using same” (Avon Products, Inc., priority 2001, published 2005)", "origin": "cited, not measured here", "tested_on": "Heat shock 70 protein", "data": [{"smiles": "O=[As]O", "note": "[Sodium arsenite, sodium arsenite]", "values": [{"measurement": "production of heat shock protein (known effect of positive control)", "value": "stimulate the production of heat shock protein"}]}]}
